Laboratory results published in US8618289B2 (Ambit Biosciences Corporation, priority 2008, dated 2013).
Like-named read-outs stand apart in the source and are kept apart here.

Columns and labels:
[1] = system: MEK1 phosphorylation in the A375 human melanoma cell line; assay: cells; settings: A-375, read-out: pMEK IC50
RAF kinases [2] = target: T1, RAF kinases (Homo sapiens, UniProt P15056); settings: read-out: BRAF WT Kd; BRAF WT
RAF kinases [3] = target: T2, RAF kinases (Homo sapiens, UniProt P04049); settings: read-out: RAF1 Kd; RAF1
RAF kinases [4] = target: T3, RAF kinases (Homo sapiens, UniProt P15056, V600E); settings: read-out: BRAF V600E Kd; BRAF V600E
A375 cells = assay: cells; settings: Homo sapiens, A-375, read-out: A375 Viability EC50
RAF kinases [5] = target: T2, RAF kinases; assay: biochemical
RAF kinases [6] = target: T3, RAF kinases; assay: biochemical
RAF kinases [7] = target: T1, RAF kinases; assay: biochemical

T2 sequence (P04049 whole entry): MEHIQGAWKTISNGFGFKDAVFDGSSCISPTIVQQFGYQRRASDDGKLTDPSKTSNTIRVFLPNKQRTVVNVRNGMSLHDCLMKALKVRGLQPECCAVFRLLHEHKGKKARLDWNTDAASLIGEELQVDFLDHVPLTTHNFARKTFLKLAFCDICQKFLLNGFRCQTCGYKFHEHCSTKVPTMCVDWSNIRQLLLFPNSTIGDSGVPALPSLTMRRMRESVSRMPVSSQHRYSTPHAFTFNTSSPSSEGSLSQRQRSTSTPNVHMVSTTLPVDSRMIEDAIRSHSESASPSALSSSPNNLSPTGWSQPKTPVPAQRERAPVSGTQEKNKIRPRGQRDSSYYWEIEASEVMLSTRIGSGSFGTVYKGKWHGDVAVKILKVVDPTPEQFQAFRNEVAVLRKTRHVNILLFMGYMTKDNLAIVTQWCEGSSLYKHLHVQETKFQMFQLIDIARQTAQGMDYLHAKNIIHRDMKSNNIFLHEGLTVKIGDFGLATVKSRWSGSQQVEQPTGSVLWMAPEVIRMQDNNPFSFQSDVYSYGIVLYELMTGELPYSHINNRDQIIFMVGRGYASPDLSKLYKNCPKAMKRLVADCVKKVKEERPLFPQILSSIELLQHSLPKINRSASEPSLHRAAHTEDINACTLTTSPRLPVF
T3 sequence (P15056 whole entry V600E): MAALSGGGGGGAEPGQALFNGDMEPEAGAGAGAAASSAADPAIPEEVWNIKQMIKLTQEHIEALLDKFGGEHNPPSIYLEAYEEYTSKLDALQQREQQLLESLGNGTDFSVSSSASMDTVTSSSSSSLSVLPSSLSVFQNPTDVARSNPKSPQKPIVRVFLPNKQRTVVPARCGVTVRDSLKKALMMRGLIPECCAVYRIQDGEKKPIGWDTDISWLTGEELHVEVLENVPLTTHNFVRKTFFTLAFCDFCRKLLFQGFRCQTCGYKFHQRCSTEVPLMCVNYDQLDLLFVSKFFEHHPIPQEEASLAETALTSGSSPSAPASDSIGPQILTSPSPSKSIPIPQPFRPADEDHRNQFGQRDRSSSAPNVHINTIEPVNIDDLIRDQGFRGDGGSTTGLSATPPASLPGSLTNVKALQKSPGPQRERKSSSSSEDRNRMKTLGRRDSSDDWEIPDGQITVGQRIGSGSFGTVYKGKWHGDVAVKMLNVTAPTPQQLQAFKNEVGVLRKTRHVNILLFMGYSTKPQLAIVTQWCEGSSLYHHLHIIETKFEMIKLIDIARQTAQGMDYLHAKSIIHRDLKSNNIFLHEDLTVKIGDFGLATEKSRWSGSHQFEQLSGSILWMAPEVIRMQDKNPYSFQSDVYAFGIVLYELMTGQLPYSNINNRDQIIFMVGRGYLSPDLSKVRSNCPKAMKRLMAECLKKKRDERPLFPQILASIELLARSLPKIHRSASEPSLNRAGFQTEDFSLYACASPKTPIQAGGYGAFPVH
T1 sequence (P15056 whole entry): as the sequence (P15056 whole entry V600E) above, with E600V counted along it

IC50 [1] [nM] | Kd (RAF kinases [2]) [nM] | Kd (RAF kinases [3]) [nM] | Kd (RAF kinases [4]) [nM] | EC50 (A375 cells) [nM] | Kd (RAF kinases [6]) [nM] | Kd (RAF kinases [7]) [nM] | Compound | Kd (RAF kinases [5]) [nM]
> 1000 | < 250 | < 250 | < 250 | > 1000 |  |  | COc1cc2ncnc(Sc3cccc(NC(=O)Nc4cc(C(F)(F)F)no4)c3)c2cc1OC [Ex 382, 1-(3-(6,7-dimethoxyquinazolin-4-ylthio)phenyl)-3-(3-(trifluoromethyl)isoxazol-5-yl)urea] | 
< 250 | > 1000 | > 1000 | > 1000 | < 250 |  |  | COc1cc2ncnc(Oc3ccc(Cl)c(NC(=O)Nc4cc(C(C)(C)C)nn4-c4ccc(C)cc4)c3)c2cc1OC [Ex 298, 1-(3-tert-butyl-1-p-tolyl-1H-pyrazol-5-yl)-3-(2-chloro-5-(6,7-dimethoxyquinazolin-4-yloxy)phenyl)urea] | 
< 250 | > 1000 |  | < 250 | 250 to 500 |  |  | COc1cc2ncnc(Oc3cc(NC(=O)Nc4cc(C(F)(F)F)nn4-c4ccccc4)ccc3F)c2cc1OC [Ex 397, 1-(3-(6,7-Dimethoxyquinazolin-4-yloxy)-4-fluorophenyl)-3-(1-phenyl-3-(trifluoromethyl)-1H-pyrazol-5-yl)urea] | 500 to 1000
250 to 500 | > 1000 | > 1000 | < 250 |  |  |  | COc1cc2ncnc(Sc3cccc(NC(=O)Nc4cc(C(C)(C)C)nn4Cc4ccccc4)c3)c2cc1OC [Ex 358, 1-(1-benzyl-3-tert-butyl-1H-pyrazol-5-yl)-3-(3-(6,7-dimethoxyquinazolin-4-ylthio)phenyl)urea] | 
< 250 | > 1000 | > 1000 | < 250 |  |  |  | COc1cc2ncnc(Sc3cccc(NC(=O)Nc4cc(C(C)(C)C)nn4-c4ccc(C(C)(C)C)cc4)c3)c2cc1OC [Ex 370, 1-(3-tert-butyl-1-(4-tert-butylphenyl)-1H-pyrazol-5-yl)-3-(3-(6,7-dimethoxyquinazolin-4-ylthio)phenyl)urea] | 
> 1000 | > 1000 |  |  | > 1000 | 250 to 500 |  | COCCOc1cc2ncnc(Oc3cccc(NC(=O)Nc4ccc(C(F)(F)F)c(OC)c4)c3)c2cc1OC [Ex 223, 1-(3-methoxy-4-(trifluoromethyl)phenyl)-3-(3-(6-methoxy-7-(2-methoxyethoxy)quinazolin-4-yloxy)phenyl)urea] | 500 to 1000
< 250 | < 250 | < 250 | < 250 |  |  |  | COc1cc2ncnc(Oc3cc(NC(=O)Nc4cc(C(C)(C)C(F)(F)F)on4)ccc3F)c2cc1OC [Ex 266, 1-(3-(6,7-dimethoxyquinazolin-4-yloxy)-4-fluorophenyl)-3-(5-(1,1,1-trifluoro-2-methylpropan-2-yl)isoxazol-3-yl)urea] | 
< 250 |  | < 250 | < 250 | < 250 |  | 250 to 500 | COCCOc1cc2ncnc(Oc3cccc(NC(=O)Nc4cc(C(C)(CF)CF)on4)c3)c2cc1OC [Ex 213, 1-[5-(1,3-difluoro-2-methylpropan-2-yl)isoxazol-3-yl]-3-{3-[6-methoxy-7-(2-methoxyethoxy)quinazolin-4-yloxy]phenyl}urea] | 
< 250 | < 250 | < 250 | < 250 |  |  |  | COc1cc2ncnc(Oc3cc(NC(=O)Nc4cc(C(C)(CF)CF)on4)ccc3F)c2cc1OC [Ex 294, 1-(5-(1,3-difluoro-2-methylpropan-2-yl)isoxazol-3-yl)-3-(3-(6,7-dimethoxyquinazolin-4-yloxy)-4-fluorophenyl)urea] | 
< 250 | > 1000 | > 1000 | > 1000 |  |  |  | COCCOc1cc2ncnc(Sc3cccc(NC(=O)Nc4cc(C(C)(C)C)nn4-c4ccccc4)c3)c2cc1OC [Ex 236, 1-(3-tert-butyl-1-phenyl-1H-pyrazol-5-yl)-3-(3-(6-methoxy-7-(2-methoxyethoxy)quinazolin-4-ylthio)phenyl)urea] | 
< 250 | < 250 | < 250 | < 250 |  |  |  | COc1cc2ncnc(Sc3cccc(NC(=O)Nc4cc(C(C)(C)C#N)no4)c3)c2cc1OC [Ex 381, 1-(3-(2-cyanopropan-2-yl)isoxazol-5-yl)-3-(3-(6,7-dimethoxyquinazolin-4-ylthio)phenyl)urea] | 
< 250 | < 250 |  | < 250 | > 1000 |  |  | COc1cc2ncnc(Sc3cccc(NC(=O)Nc4cc(C(C)(C)F)no4)c3)c2cc1OCCCN1CCS(=O)(=O)CC1 [Ex 245, 1-(3-(2-fluoropropan-2-yl)isoxazol-5-yl)-3-(3-(7-methoxy-6-(4,4-dioxo-3-thiomorpholinopropoxy)quinazolin-4-ylthio)phenyl)urea] | 250 to 500
< 250 | > 1000 | > 1000 | < 250 |  |  |  | COCCOc1cc2ncnc(Oc3cccc(NC(=O)Nc4cc(C(C)(C)C)nn4-c4ccc(C)cc4)c3)c2cc1OC [Ex 276, 1-(3-tert-butyl-1-p-tolyl-1H-pyrazol-5-yl)-3-(3-(6-methoxy-7-(2-methoxyethoxy)quinazolin-4-yloxy)phenyl)urea] | 
< 250 |  | > 1000 | < 250 | > 1000 |  | 500 to 1000 | COc1cc2ncnc(Oc3cccc(NC(=O)Nc4cc(C(C)(C)C)nn4-c4ccc(C(C)(C)C)cc4)c3)c2cc1OC [Ex 369, 1-(3-tert-butyl-1-(4-tert-butylphenyl)-1H-pyrazol-5-yl)-3-(3-(6,7-dimethoxyquinazolin-4-yloxy)phenyl)urea] | 
< 250 | > 1000 | > 1000 | < 250 |  |  |  | COc1cc2ncnc(Oc3cccc(NC(=O)Nc4cc(C(C)(C)C)nn4-c4cccc(F)c4)c3)c2cc1OC [Ex 359, 1-(3-tert-butyl-1-(3-fluorophenyl)-1H-pyrazol-5-yl)-3-(3-(6,7-dimethoxyquinazolin-4-yloxy)phenyl)urea] | 

Compound | IC50 [1] [nM] | Kd (RAF kinases [2]) [nM] | Kd (RAF kinases [3]) [nM] | Kd (RAF kinases [4]) [nM] | EC50 (A375 cells) [nM] | Kd (RAF kinases [6]) [nM] | Kd (RAF kinases [7]) [nM] | Kd (RAF kinases [5]) [nM]
COc1cc2c(Oc3cccc(NC(=O)Nc4cc(C(C)(C)F)no4)c3)ncnc2cc1OCCN1CCOCC1 [Ex 251, 1-(3-(2-fluoropropan-2-yl)isoxazol-5-yl)-3-(3-(6-methoxy-7-(2-morpholinoethoxy)quinazolin-4-yloxy)phenyl)urea] | 250 to 500 | < 250 |  | < 250 | > 1000 |  |  | 250 to 500
COc1cc2ncnc(Oc3cccc(NC(=O)Nc4cc(C(C)(C)C)nn4-c4ccccc4)c3C)c2cc1OC [Ex 289, 1-(3-tert-butyl-1-phenyl-1H-pyrazol-5-yl)-3-(3-(6,7-dimethoxyquinazolin-4-yloxy)-2-methylphenyl)urea] | < 250 | > 1000 |  | < 250 | 500 to 1000 |  |  | 500 to 1000
COc1cc2ncnc(Sc3cccc(NC(=O)Nc4cc(C5CCC5)nn4-c4ccccc4)c3)c2cc1OC [Ex 356, 1-(3-cyclobutyl-1-phenyl-1H-pyrazol-5-yl)-3-(3-(6,7-dimethoxyquinazolin-4-ylthio)phenyl)urea] | 250 to 500 | > 1000 |  | < 250 | < 250 |  |  | 500 to 1000
COc1cc2ncnc(Oc3cccc(NC(=O)Nc4cc(C(C)(C)C)nn4-c4ccccc4)c3F)c2cc1OC [Ex 295, 1-(3-tert-butyl-1-phenyl-1H-pyrazol-5-yl)-3-(3-(6,7-dimethoxyquinazolin-4-yloxy)-2-fluorophenyl)urea] | 500 to 1000 | > 1000 |  | < 250 | > 1000 |  |  | 500 to 1000
